Measured values: patent publication US20250368647A1, “NITROGEN CONTAINING CONDENSED 2,3-DIHYDROQUINAZOLINONE COMPOUNDS AS NAV1.8 INHIBITORS” (GLAXOSMITHKLINE INTELLECTUAL PROPERTY DEVELOPMENT LIMITED, priority 2022, published 2025)
Where a name gives a salt, the structure may show the parent alone.

Molecular target: human Nav1.8 (Homo sapiens (Human), UniProt Q9Y5Y9)
Test: QPatch 48 HTX voltage-clamp electrophysiology, half inactivation state (V1/2) protocol, HEK293-Nav1.8 cells
Format: cell-based
Conditions: HEK293 cells expressing human Nav1.8, human Navβ1 and human TREK1, P2 current
Procedure: Human embryonic kidney 293 cells (HEK293) expressing human Nav1.8, human Navβ1 and human TREK1 (HEK293-Nav1.8) were grown in T150 cell culture flasks at 37° C., 5% CO2 incubator. HEK293-Nav1.8 were passaged every 2-3 days when confluency reached 80-90% in T150 cell culture flasks.
Pharmacological assessment of compounds of the invention was performed using the QPatch 48 HTX electrophysiological platform. HEK293-Nav1.8 cells were prepared on the day of use by removing culture media, washing in DPBS, adding Accutase (2 mL to cover the surface, aspirate 1 mL then 1-2 minutes at 37° C.) followed by addition of CHO-SFM II to stop the enzyme digestion and in order to obtain a suspension of 3×10^6 cell/mL.
Compounds of the invention were prepared in an extracellular solution of the following composition: NaCl (145 mM), KCl (4 mM), CaCl2) (2 mM), MgCl (2 mM), HEPES (1 mM), Glucose (10 mM), pH 7.4 with NaOH Osmolality 300 mOsM/L. An intracellular solution of the following composition was used: CsF (115 mM), CsCl (20 mM), NaCl (5 mM), EGTA (10 mM), HEPES (10 mM), Sucrose (20 mM), pH 7.2 with CsOH Osmolality 310 mOsm/L.
Utilizing the voltage-clamp mode in the QPatch 48 HTX system a half inactivation state voltage protocol (V1/2) was used to determine pharmacological activity of compounds of the invention at Nav1.8 ion channels. A V1/2 protocol was utilized with the following voltage steps: a holding voltage of −100 mV was established followed by a 20 ms voltage step to 0 mV (P1), followed by an inactivating voltage step at −46 mV for 8 seconds, followed by a step to −100 mV for 20 ms, before a 20 ms step to 0 mV (P2), then returned to the holding voltage of −100 mV. This voltage protocol was repeated at a frequency of every 15 seconds, the current magnitude was quantified at the P2 step throughout the recording. Inhibition of the measured current amplitude with compounds of the invention was analyzed by fitting a 4-6 points dose-response curve allowing determination of the fifty percent inhibition concentration (IC50). P2 currents were normalized according to measurements made at baseline (Baseline, vehicle only), after compound (Input, at each test concentration), and after positive reference compound (FullResponse, to achieve complete block), fit to the following equation: […]
To assess current run-down over the course of the experiment vehicle-only wells were utilized and the normalized current with vehicle-only (n.IVEH) was determined. To correct the compound response for run-down, the currents were corrected according to the following formula: […]
Compound inhibition was fitted to the following Hill Equation to estimate the half maximal inhibition concentration (IC50)
[formula] • where Y is the normalized run-down corrected inhibition relative to the vehicle control (equivalent to n.IRD_Correct), C the test compound concentration, IC50 the concentration of test compound to inhibit the sodium current by 50%, and h the Hill coefficient.

human Nav1.8, sequence (Q9Y5Y9 whole entry): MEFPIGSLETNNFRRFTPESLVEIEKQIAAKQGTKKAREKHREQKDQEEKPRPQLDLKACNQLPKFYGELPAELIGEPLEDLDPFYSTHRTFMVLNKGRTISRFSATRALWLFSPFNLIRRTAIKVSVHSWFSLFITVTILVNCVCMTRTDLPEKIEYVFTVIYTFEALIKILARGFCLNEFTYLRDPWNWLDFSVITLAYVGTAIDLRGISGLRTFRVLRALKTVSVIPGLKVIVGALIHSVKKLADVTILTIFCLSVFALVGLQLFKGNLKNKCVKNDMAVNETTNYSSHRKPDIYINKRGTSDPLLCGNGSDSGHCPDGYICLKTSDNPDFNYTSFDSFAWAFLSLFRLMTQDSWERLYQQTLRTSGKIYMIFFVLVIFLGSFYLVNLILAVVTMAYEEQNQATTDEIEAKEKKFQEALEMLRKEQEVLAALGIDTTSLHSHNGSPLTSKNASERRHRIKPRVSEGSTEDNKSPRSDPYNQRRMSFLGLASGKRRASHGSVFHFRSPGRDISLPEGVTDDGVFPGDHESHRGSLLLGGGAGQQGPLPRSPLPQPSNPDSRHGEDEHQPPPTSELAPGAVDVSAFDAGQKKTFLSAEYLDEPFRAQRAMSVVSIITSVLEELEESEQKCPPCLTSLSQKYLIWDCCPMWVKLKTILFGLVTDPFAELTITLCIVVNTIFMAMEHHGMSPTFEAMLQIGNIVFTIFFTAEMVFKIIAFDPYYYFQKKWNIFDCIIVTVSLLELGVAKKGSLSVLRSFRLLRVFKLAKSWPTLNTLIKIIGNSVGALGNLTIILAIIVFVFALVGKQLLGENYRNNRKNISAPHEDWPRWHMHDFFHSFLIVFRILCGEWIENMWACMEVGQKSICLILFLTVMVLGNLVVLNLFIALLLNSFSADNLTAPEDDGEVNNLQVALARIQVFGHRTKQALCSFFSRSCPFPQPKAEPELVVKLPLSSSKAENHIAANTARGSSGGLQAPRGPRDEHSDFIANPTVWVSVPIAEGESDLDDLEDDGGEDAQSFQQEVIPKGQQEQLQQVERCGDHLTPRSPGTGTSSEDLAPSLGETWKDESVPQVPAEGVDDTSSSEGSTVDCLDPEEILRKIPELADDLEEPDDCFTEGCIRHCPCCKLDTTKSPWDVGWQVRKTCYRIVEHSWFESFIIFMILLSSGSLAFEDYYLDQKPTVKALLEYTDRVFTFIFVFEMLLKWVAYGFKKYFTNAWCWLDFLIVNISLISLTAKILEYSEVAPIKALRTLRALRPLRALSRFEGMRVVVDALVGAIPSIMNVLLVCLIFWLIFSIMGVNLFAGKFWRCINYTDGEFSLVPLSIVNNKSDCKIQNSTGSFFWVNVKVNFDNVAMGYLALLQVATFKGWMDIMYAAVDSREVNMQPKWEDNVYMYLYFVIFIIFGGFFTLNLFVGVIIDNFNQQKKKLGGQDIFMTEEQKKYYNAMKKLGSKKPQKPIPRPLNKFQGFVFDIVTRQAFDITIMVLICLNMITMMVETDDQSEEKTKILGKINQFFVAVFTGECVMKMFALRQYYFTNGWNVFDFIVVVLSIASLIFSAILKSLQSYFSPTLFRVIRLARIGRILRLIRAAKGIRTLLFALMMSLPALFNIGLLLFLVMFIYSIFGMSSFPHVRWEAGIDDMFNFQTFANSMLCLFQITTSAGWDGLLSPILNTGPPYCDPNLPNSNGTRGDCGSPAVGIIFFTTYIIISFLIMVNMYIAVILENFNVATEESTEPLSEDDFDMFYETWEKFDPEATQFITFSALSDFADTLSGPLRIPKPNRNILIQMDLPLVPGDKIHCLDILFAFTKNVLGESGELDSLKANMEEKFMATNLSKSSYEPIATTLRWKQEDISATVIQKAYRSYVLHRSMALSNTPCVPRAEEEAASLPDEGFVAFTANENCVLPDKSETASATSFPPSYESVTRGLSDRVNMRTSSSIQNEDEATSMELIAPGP
human Nav1.8, sequence (Q07699 19-218 partner): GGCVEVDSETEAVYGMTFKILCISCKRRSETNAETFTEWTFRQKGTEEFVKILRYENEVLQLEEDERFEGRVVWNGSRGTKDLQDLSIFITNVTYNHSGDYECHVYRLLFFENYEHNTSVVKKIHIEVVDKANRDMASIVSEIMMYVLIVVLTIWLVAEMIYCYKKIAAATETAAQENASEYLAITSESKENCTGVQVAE

Structure (SMILES)	Nav1.8, pIC50	IC50 (read-out: Nav1.8, pIC50 (converted)) [nM]
O=C1c2cc(C(F)(F)F)ccc2N2CN1c1ccc(=O)[nH]c1NCCCc1cc(F)c(F)cc12 [Example 39, 7,8-Difluoro-2-(trifluoromethyl)-10,11,12,13-tetrahydro-19H-5,18-methanodibenzo[f,i]dipyrido[2,3,-b][1,4,8]triazacyclotridecine-15,19(14H)-dione]	7.0	–
O=C1c2cc(C(F)(F)F)ncc2N2CN1c1ccc(=O)[nH]c1CCCCc1cc(F)ccc12 [Example 40, 8-Fluoro-2-(trifluoromethyl)-10,11,12,13-tetrahydro-19H-5,18-methanobenzo[l]dipyrido[3,4-b:3′,2′-f][1,5]diazocyclotridecine-15,19(14H)-dione]	6.0	–
O=C1c2cc(C(F)(F)F)ccc2N2CN1c1ccc(=O)[nH]c1CCNCc1cc(F)ccc12 [Example 41, 8-Fluoro-2-(trifluoromethyl)-10,11,12,13-tetrahydro-19H-5,18-methanodibenzo[c,f]pyrido[3,2-f][1,5,9]triazacyclotridecine-15,19(14H)-dione]	7.3	–
O=C1c2cc(Cl)cnc2N2CN1c1ccc(=O)[nH]c1CCNCc1cc(F)ccc12 [Example 42, 2-Chloro-8-fluoro-10,11,12,13-tetrahydro-19H-5,18-methanodibenzo[c]dipyrido[2,3-f:3′,2′-j][1,5,9]triazacyclotridecine-15,19(14H)-dione]	6.9	–
O=C1c2cc(F)c(C(F)(F)F)cc2N2CN1c1ccc(=O)[nH]c1CCNCc1cc(F)ccc12 [Example 44, 2,8-Difluoro-3-(trifluoromethyl)-10,11,12,13-tetrahydro-19H-5,18-methanodibenzo[c,f]pyrido[3,2-i][1,5,9]triazacyclotridecine-15,19(14H)-dione]	8.6	–
O=C1c2c(ccc(C(F)(F)F)c2F)N2CN1c1ccc(=O)[nH]c1CCNCc1cc(F)ccc12 [Example 45, 1,8-Difluoro-2-(trifluoromethyl)-10,11,12,13-tetrahydro-19H-5,18-methanodibenzo[c,f]pyrido[3,2-j][1,5,9]triazacyclotridecine-15,19(14H)-dione]	6.9	–
Cl.O=C1c2cc(F)c(F)cc2N2CN1c1ccc(=O)[nH]c1CCNCc1cc(F)ccc12 [Example 53, 2,3,8-Trifluoro-10,11,12,13-tetrahydro-19H-5,18-methanodibenzo[c,f]pyrido[3,2-j][1,5,9]triazacyclotridecine-15,19(14H)-dione hydrochloride]	6.7	–
CNc1cc2c(cc1F)C(=O)N1CN2c2ccc(F)cc2CNCCc2[nH]c(=O)ccc21 [Example 54, 2,8-Difluoro-3-(methylamino)-10,11,12,13-tetrahydro-19H-5,18-methano-dibenzo[c,f]pyrido[3,2-j][1,5,9]triazacyclotridecine-15,19(14H)-dione]	6	–
N#Cc1cc2c(cc1Cl)C(=O)N1CN2c2ccc(F)cc2CNCCc2[nH]c(=O)ccc21 [Example 55, 2-Chloro-8-fluoro-15,19-dioxo-10,11,12,13,14,15-hexahydro-19H-5,18-methano-dibenzo[c,f]pyrido[3,2-j][1,5,9]triazacyclotridecine-3-carbonitrile]	7.2	–
Cl.O=C1c2cc(Cl)c(C(F)(F)F)cc2N2CN1c1ccc(=O)[nH]c1CCNCc1cc(F)ccc12 [Example 59, 2-Chloro-8-fluoro-3-(trifluoromethyl)-10,11,12,13-tetrahydro-19H-5,18-methanodibenzo[c,f]pyrido[3,2-j][1,5,9]triazacyclotridecine-15,19(14H)-dione hydrochloride]	7.8	–
Cc1c(F)ccc2c1CNCCc1[nH]c(=O)ccc1N1CN2c2cc(C(F)(F)F)c(F)cc2C1=O [Example 61, 2,8-Difluoro-9-methyl-3-(trifluoromethyl)-10,11,12,13-tetrahydro-19H-5,18-methanodibenzo[c,f]pyrido[3,2-j][1,5,9]triazacyclotridecine-15,19(14H)-dione hydrochloride]	–	3.98

The remaining lines, values ahead:

Nav1.8, pIC50	IC50 (read-out: Nav1.8, pIC50 (converted)) [nM]	Structure (SMILES)
7.4	–	O=C1c2cc(Cl)c(F)cc2N2CN1c1ccc(=O)[nH]c1CCNCc1cc(F)ccc12 [Example 43, 2-Chloro-3,8-difluoro-10,11,12,13-tetrahydro-19H-5,18-methanodibenzo[c,f]pyrido[3,2-f][1,5,9]triazacyclotridecine-15,19(14H)-dione]
8	–	Cl.O=C1c2cc(F)c(Cl)cc2N2CN1c1ccc(=O)[nH]c1CCNCc1cc(F)ccc12 [Example 46, 3-Chloro-2,8-difluoro-10,11,12,13-tetrahydro-19H-5,18-methanodibenzo[c,f]pyrido[3,2-j][1,5,9]triazacyclotridecine-15,19(14H)-dione, hydrochloride]
8.1	–	Cl.O=C1c2cc(F)c(C(F)(F)F)cc2N2CN1c1ccc(=O)[nH]c1CCNCc1c2ccc(F)c1F [Example 48, 2,8,9-Trifluoro-3-(trifluoromethyl)-10,11,12,13-tetrahydro-19H-5,18-methanodibenzo[c,f]pyrido[3,2-j][1,5,9]triazacyclotridecine-15,19(14H)-dione hydrochloride]
8.2	–	Cl.O=C1c2cc(F)c(Cl)cc2N2CN1c1ccc(=O)[nH]c1CCNCc1c2ccc(F)c1F [Example 49, 3-Chloro-2,8,9-trifluoro-10,11,12,13-tetrahydro-19H-5,18-methanodibenzo[c,f]pyrido[3,2-j][1,5,9]triazacyclotridecine-15,19(14H)-dione hydrochloride]
8	–	O=C1c2cc(F)c(Cl)cc2N2CN1c1ccc(=O)[nH]c1CCNCc1c2ccc(F)c1F [Example 50, 3-Chloro-2,8,9-trifluoro-10,11,12,13-tetrahydro-19H-5,18-methanodibenzo-[c,f]pyrido[3,2-j][1,5,9]triazacyclotridecine-15,19(14H)-dione]
7.4	–	N#Cc1cc2c(cc1F)C(=O)N1CN2c2ccc(F)c(F)c2CNCCc2[nH]c(=O)ccc21 [Example 57, 2,8,9-Trifluoro-15,19-dioxo-10,11,12,13,14,15-hexahydro-19H-5,18-methano-dibenzo[c,f]pyrido[3,2-j][1,5,9]triazacyclotridecine-3-carbonitrile]
8.9	–	O=C1c2cc(F)c(C(F)(F)F)cc2N2CN1c1ccc(=O)[nH]c1CCNCc1c2ccc(F)c1Cl [Example 58, 9-Chloro-2,8-difluoro-3-(trifluoromethyl)-10,11,12,13-tetrahydro-19H-5,18-methano-dibenzo[c,f]pyrido[3,2-j][1,5,9]triazacyclotridecine-15,19(14H)-dione]
8.8	–	Cl.O=C1c2cc(Cl)c(C(F)(F)F)cc2N2CN1c1ccc(=O)[nH]c1CCNCc1c2ccc(F)c1F [Example 60, 2-Chloro-8,9-difluoro-3-(trifluoromethyl)-10,11,12,13-tetrahydro-19H-5,18-methanodibenzo[c,f]pyrido[3,2-j][1,5,9]triazacyclotridecine-15,19(14H)-dione hydrochloride]
8.2	–	Cl.O=C1c2cc(F)c(Br)cc2N2CN1c1ccc(=O)[nH]c1CCNCc1c2ccc(F)c1F [Example 62, 3-Bromo-2,8,9-trifluoro-10,11,12,13-tetrahydro-19H-5,18-methanodibenzo[c,f]pyrido[3,2-j][1,5,9]triazacyclotridecine-15,19(14H)-dione hydrochloride]
